Patent publication US10710980B2, “Aminopyridine derivatives and their use as selective ALK-2 inhibitors” (priority 2016, dated 2020)
Like-named read-outs stand apart in the source and are kept apart here.

Assays:
[1] = molecular target: T1, wild-type ALK2 (aa172-499) (Homo sapiens (Human), UniProt Q04771); experiment: ADPGlo biochemical autophosphorylation assay, ALK2; settings: 15 μm ATP, 60 min at 32° C.
ALK3 (aa198-525) = ALK3 (aa198-525) (Homo sapiens (Human), UniProt P36894); experiment: ADPGlo biochemical autophosphorylation assay, ALK3; settings: 15 μm ATP, 60 min at 32° C.
Chain of ALK3 (aa198-525) (P36894 198-525): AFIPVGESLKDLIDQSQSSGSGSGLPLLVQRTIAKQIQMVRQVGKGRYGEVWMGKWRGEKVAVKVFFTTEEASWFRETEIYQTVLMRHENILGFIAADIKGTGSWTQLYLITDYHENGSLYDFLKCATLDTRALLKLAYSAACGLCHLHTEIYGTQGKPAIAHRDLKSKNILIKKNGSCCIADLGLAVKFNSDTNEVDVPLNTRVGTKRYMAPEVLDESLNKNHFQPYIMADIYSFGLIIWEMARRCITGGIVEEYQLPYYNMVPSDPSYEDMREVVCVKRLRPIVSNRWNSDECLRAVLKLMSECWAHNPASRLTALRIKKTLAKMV

[2] = molecular target: T1, wild-type ALK2 (aa172-499); experiment: Caliper biochemical peptide phosphorylation assay, ALK2; settings: 15 μm ATP, 60 min at 30° C.; read-out: ALK2 EPK (IC50)
ALK1 (aa166-493) = ALK1 (aa166-493) (Homo sapiens (Human), UniProt P37023); experiment: Caliper biochemical peptide phosphorylation assay, ALK1; settings: 15 μm ATP, 60 min at 30° C.; read-out: ALK1 EPK (IC50)
Chain of ALK1 (aa166-493) (P37023 166-493): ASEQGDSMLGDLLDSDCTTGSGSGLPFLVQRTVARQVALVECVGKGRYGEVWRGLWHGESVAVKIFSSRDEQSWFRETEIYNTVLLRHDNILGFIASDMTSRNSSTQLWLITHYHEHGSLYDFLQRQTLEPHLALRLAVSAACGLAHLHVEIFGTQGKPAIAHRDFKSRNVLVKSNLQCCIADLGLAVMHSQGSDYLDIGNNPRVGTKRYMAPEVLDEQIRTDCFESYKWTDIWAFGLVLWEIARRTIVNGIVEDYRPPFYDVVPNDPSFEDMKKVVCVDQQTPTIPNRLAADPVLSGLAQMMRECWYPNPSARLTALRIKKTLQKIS

ALK5 (aa162-503) = ALK5 (aa162-503) (Homo sapiens (Human), UniProt P36897); experiment: Caliper biochemical peptide phosphorylation assay, ALK5; settings: 15 μm ATP, 60 min at 30° C.; read-out: ALK5 EPK (IC50)
Chain of ALK5 (aa162-503) (P36897 162-503): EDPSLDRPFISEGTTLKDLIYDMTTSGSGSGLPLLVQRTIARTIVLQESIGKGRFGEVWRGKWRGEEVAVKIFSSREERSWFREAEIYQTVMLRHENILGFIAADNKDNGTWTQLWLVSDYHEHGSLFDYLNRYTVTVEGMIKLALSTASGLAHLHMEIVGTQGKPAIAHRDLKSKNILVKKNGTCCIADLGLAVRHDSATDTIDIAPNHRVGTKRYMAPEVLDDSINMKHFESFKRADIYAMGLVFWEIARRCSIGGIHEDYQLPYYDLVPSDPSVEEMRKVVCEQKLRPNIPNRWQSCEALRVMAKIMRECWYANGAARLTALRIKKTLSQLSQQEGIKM

ALK6 (aa168-495) = ALK6 (aa168-495) (Homo sapiens (Human), UniProt O00238); experiment: Caliper biochemical peptide phosphorylation assay, ALK6; settings: 15 μm ATP, 60 min at 30° C.; read-out: ALK6 EPK (IC50)
Chain of ALK6 (aa168-495) (O00238 168-495): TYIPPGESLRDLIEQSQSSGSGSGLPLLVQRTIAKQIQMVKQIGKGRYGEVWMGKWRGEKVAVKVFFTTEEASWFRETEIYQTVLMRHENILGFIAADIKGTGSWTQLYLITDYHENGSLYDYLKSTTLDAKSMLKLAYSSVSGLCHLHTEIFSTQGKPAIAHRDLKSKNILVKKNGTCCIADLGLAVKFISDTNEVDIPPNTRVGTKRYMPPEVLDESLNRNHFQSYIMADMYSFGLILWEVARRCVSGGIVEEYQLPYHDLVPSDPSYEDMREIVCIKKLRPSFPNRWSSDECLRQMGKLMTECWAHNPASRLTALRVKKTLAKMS

[3] = test system: BMP response element (BRE) luciferase reporter in HuH7 cells, BMP6 stimulated; experiment: BMP signaling reporter gene assay; format: cell-based; settings: Homo sapiens, read-out: MSD BMP RGA IC50
[4] = Huh-7, HuH7 BRE-luciferase, BMP6 100 ng/ml, 5 hours

T1 sequence (Q04771 172-499): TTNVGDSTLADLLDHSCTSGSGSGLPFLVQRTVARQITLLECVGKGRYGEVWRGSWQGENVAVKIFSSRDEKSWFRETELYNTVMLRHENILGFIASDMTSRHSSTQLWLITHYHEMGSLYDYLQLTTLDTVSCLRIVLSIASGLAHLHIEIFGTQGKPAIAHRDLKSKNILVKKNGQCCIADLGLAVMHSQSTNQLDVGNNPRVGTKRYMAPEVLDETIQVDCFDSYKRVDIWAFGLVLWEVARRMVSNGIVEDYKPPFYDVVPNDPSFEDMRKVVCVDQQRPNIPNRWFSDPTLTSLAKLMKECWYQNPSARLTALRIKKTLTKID

Structure (SMILES) | IC50 [1] [nM] | IC50 (ALK3 (aa198-525)) [nM] | IC50 [2] [nM] | IC50 (ALK1 (aa166-493)) [nM] | IC50 (ALK5 (aa162-503)) [nM] | IC50 (ALK6 (aa168-495)) [nM] | IC50 [3, 4] [nM] | IC50 ([3]; Huh-7, 5 h) [nM]
C[C@@H]1CCCN1Cc1ccc(-c2cnc(N)c(C(=O)N[C@H]3CC[C@](C)(O)CC3)c2)c(F)c1 [Example 56, 2-amino-5-(2-fluoro-4-(((R)-2-methylpyrrolidin-1-yl)methyl)phenyl)-N-((1r,4R)-4-hydroxy-4-methylcyclohexyl)nicotinamide] | 28 | 9900 | 30 | 930 | 5800 | 10000 | 285 | 
Nc1ncc(-c2ccc(N3CCNCC3)cc2F)cc1C(=O)N[C@H]1CC[C@H](O)CC1 [Example 29, 2-amino-5-(2-fluoro-4-(piperazin-1-yl)phenyl)-N-((1r,4r)-4-hydroxycyclohexyl)nicotinamide] | 22 | 2500 | 20 | 280 | 4000 | 4000 | 685 | 
Nc1ncc(-c2ccc([C@@]34C[C@@H]3CN(C3CCOCC3)C4)cc2)cc1C(=O)N[C@@H]1CC[C@@H](O)[C@@H](F)C1 [Example 21, 2-amino-N-((1R,3S,4R)-3-fluoro-4-hydroxycyclohexyl)-5-(4-((1R,5S)-3-(tetrahydro-2H-pyran-4-yl)-3-azabicyclo[3.1.0]hexan-1-yl)phenyl)nicotinamide] | 6 | 260 | 19 | 55 | 900 | 1000 | 35 | 
Nc1ncc(-c2ccc([C@@]34C[C@@H]3CN(CCOCC(F)(F)F)C4)cc2)cc1C(=O)N[C@H]1CC[C@H](O)CC1 [Example 41, 2-amino-N-((1r,4R)-4-hydroxycyclohexyl)-5-(4-((1R,5S)-3-(2-(2,2,2-trifluoroethoxy)ethyl)-3-azabicyclo[3.1.0]hexan-1-yl)phenyl)nicotinamide] | 19 | 1800 | 23 | 310 | 6700 | 6900 | 158 | 
CC(F)(F)CN1C[C@H]2C[C@@]2(c2ccc(-c3cnc(N)c(C(=O)N[C@H]4CC[C@H](O)CC4)c3)cc2)C1 [Example 50, 2-amino-5-(4-((1R,5S)-3-(2,2-difluoropropyl)-3-azabicyclo[3.1.0]hexan-1-yl)phenyl)-N-((1r,4R)-4-hydroxycyclohexyl)nicotinamide] | 11 | 2400 | 37 | 500 | 6400 | 5100 | 825 | 
C[C@@H]1CCCN1Cc1ccc(-c2cnc(N)c(C(=O)N[C@H]3CC[C@](C)(O)CC3)c2)cc1Cl [Example 85, 2-amino-5-(3-chloro-4-(((R)-2-methylpyrrolidin-1-yl)methyl)phenyl)-N-((1r,4R)-4-hydroxy-4-methylcyclohexyl)nicotinamide] | 190 | 15100 | 170 | 9800 | 10000 | 10000 | 860 | 
Nc1ncc(-c2cccc(C(=O)N3CCOCC3)c2)cc1C(=O)NC1CCCCC1 [Example 84, 2-amino-N-cyclohexyl-5-(3-(morpholine-4-carbonyl)phenyl)nicotinamide] | 2400 | 21900 | 350 | 20200 | 20200 | 20200 | 9500 | 
Nc1ncc(-c2ccc(CN3CC4(CCC4)C3)cc2)cc1C(=O)N[C@H]1CC[C@H](O)CC1 [Example 23, 5-(4-(2-azaspiro[3.3]heptan-2-ylmethyl)phenyl)-2-amino-N-((1r,4r)-4-hydroxycyclohexyl)nicotinamide] | 9 | 1600 | 18 | 250 | 2700 | 2400 |  | 23
CN1CCN(CCNC(=O)c2ccc(-c3cnc(N)c(C(=O)NC4CCCCC4)c3)cc2)CC1 [Example 65, 2-amino-N-cyclohexyl-5-(4-((2-(4-methylpiperazin-1-yl)ethyl)carbamoyl)phenyl)nicotinamide] | 82 | 2400 | 44 | 580 | 1700 | 10000 | 415 | 
Nc1ncc(-c2ccc([C@]34C[C@H]3CN(C3CCOCC3)C4)cc2)cc1C(=O)NC12CCC(O)(CC1)CC2 [Example 42, 2-amino-N-(4-hydroxybicyclo[2.2.2]octan-1-yl)-5-(4-((1S,5R)-3-(tetrahydro-2H-pyran-4-yl)-3-azabicyclo[3.1.0]hexan-1-yl)phenyl)nicotinamide] | 26 | 1300 | 29 | 540 | 4770 | 4100 | 235 | 
Nc1ncc(-c2ccc(OCCCN3CCCCC3)cc2)cc1C(=O)NC1CCCCC1 [Example 43, 2-amino-N-cyclohexyl-5-(4-(3-(piperidin-1-yl)propoxy)phenyl)nicotinamide] | 31 | 2350 | 25 | 765 | 3500 | 11000 | 130 | 
Nc1ncc(-c2ccc([C@]34C[C@H]3CN(C3CCOCC3)C4)cc2)cc1C(=O)NC12CC(CO)(C1)C2 [Example 28, 2-amino-N-(3-(hydroxymethyl)bicyclo[1.1.1]pentan-1-yl)-5-(4-((1S,5R)-3-(tetrahydro-2H-pyran-4-yl)-3-azabicyclo[3.1.0]hexan-1-yl)phenyl)nicotinamide] | 11 | 530 | 18 | 250 | 9400 | 3300 | 17 | 
CC(C)N1C[C@@H]2C[C@]2(c2ccc(-c3cnc(N)c(C(=O)N[C@H]4CC[C@@H](O)CC4)c3)cc2)C1 [Example 71, 2-amino-N-((1s,4R)-4-hydroxycyclohexyl)-5-(4-((1S,5R)-3-isopropyl-3-azabicyclo[3.1.0]hexan-1-yl)phenyl)nicotinamide] | 22 | 2900 | 65 | 490 | 3000 | 5800 | 86 | 
C[C@@H]1CCCN1Cc1ccc(-c2cnc(N)c(C(=O)N[C@H]3CC[C@](C)(O)CC3)c2)c(F)c1F [Example 74, 2-amino-5-(2,3-difluoro-4-(((R)-2-methylpyrrolidin-1-yl)methyl)phenyl)-N-((1r,4R)-4-hydroxy-4-methylcyclohexyl)nicotinamide] | 64 | 13200 | 70 | 2500 | 10000 | 10000 | 550 | 
CC(F)(F)CN1C[C@@H]2C[C@]2(c2ccc(-c3cnc(N)c(C(=O)N[C@H]4CC[C@H](O)CC4)c3)cc2)C1 [Example 76, 2-amino-5-(4-((1S,5R)-3-(2,2-difluoropropyl)-3-azabicyclo[3.1.0]hexan-1-yl)phenyl)-N-((1r,4S)-4-hydroxycyclohexyl)nicotinamide] | 34 | 3200 | 79 | 370 | 9400 | 8400 | 2300 | 
Nc1ncc(-c2ccc([C@@]34C[C@@H]3CN(CCN3CCOCC3)C4)cc2)cc1C(=O)NC12CCC(O)(CC1)CC2 [Example 15, 2-amino-N-(4-hydroxybicyclo[2.2.2]octan-1-yl)-5-(4-((1R,5S)-3-(2-morpholinoethyl)-3-azabicyclo[3.1.0]hexan-1-yl)phenyl)nicotinamide] | 29 | 967 | 20 | 370 | 3770 | 2230 | 74 | 
CC(C)N1C[C@H]2C[C@@]2(c2ccc(-c3cnc(N)c(C(=O)N[C@H]4CC[C@H](O)CC4)c3)cc2)C1 [Example 2, 2-amino-N-((1r,4R)-4-hydroxycyclohexyl)-5-(4-((1R,5S)-3-isopropyl-3-azabicyclo[3.1.0]hexan-1-yl)phenyl)nicotinamide] | 12 | 1770 | 11 | 93 | 2170 | 2500 | 21 | 
Nc1ncc(-c2ccc([C@]34C[C@H]3CN(CC(F)(F)F)C4)cc2)cc1C(=O)N[C@H]1CC[C@H](O)CC1 [Example 67, 2-amino-N-((1r,4S)-4-hydroxycyclohexyl)-5-(4-((1S,5R)-3-(2,2,2-trifluoroethyl)-3-azabicyclo[3.1.0]hexan-1-yl)phenyl)nicotinamide] | 22 | 1900 | 50 | 180 | 10000 | 8700 | 1160 | 
CC(C)(O)C12CC(NC(=O)c3cc(-c4ccc([C@@]56C[C@@H]5CN(C5CCOCC5)C6)cc4)cnc3N)(C1)C2 [Example 83, 2-amino-N-(3-(2-hydroxypropan-2-yl)bicyclo[1.1.1]pentan-1-yl)-5-(4-((1R,5S)-3-(tetrahydro-2H-pyran-4-yl)-3-azabicyclo[3.1.0]hexan-1-yl)phenyl)nicotinamide] | 100 | 15100 | 145 | 5600 | 10000 | 10000 | 360 | 
